Assay results: patent US20130315843A1, “COMPOSITION FOR REDUCTION OF TRPA1 AND TRPV1 SENSATIONS” (priority 2012, published 2013)

Key:
[1] = Headspace GC reduction of 1-propanethiol by protectant (Michael Acceptor) compounds; conditions: for % Thiol Reduction: 0.1% sodium lauryl sulfate, 1% test compound, headspace; for Percent Thiol Reduction vs. Control: 0.1% SLS
Method: For EXAMPLES 11 and 12 a 0.1% sodium lauryl sulfate (SLS) aqueous solution was prepared to contain either 1 ppm or 10 ppm of 1-propanethiol. SLS solution was added to the sample and control solutions to assist in solubilization of the more hydrophobic compounds. Control solutions contained surfactant and 1-propanethiol, while sample solutions contained these components plus a protectant compound added at either 0.01% or 0.05%. 100 μL aliquots of control or test solutions were aliquotted into a 22 mL headspace vial, vortexed for 30 seconds, and incubated for 30 minutes at 60 C in an oven. After that period, 1 mL of head space was sampled and injected into an Agilent 7890 gas chromatograph equipped with a sulfur chemiluminescence detector (GC-SCD). Peak areas of the 1-propanethiol control sample (no protectant compound added) were established by triplicate injection of the control sample. The area of the propanethiol peak produced from samples containing selected protectant molecules were then determined and ratioed to the 1-propanethiol control peak area, subtracted from 1, and multiplied by 100 to calculate percent reduction of the thiol peak, thus indicating the effectiveness of each protectant at reducing the level of thiol.
The samples in TABLE 17 were prepared by combining 1 ppm 1-propanethiol with 0.1% sodium lauryl sulfate with 1% of the test compounds. The volatile sulfurs were measured with headspace GC/MS using a SPEME column to capture the volatile sulfur.
The samples in TABLE 18 were prepared by combining either 1 or 10 ppm 1-propanethiol with 0.1% sodium lauryl sulfate with either 0.01% or 0.05% of the test compounds.

human TRPV1 [2] = target: T1, human TRPV1 (Homo sapiens, UniProt Q8NER1); experiment: FLIPR Ca2+ assay, reduction of capsaicin activation of TRPV1; type: cell-based; set-up: expressed in transfected cells; conditions: for % inhibition of TRPV1 activation by 350 nM Capsaicin: Dose 1000; for Ca++ counts: with compound, Dose 1000, 350 nM Capsaicin
Method: (§1) Cells were detached with addition of 10 ml of PBS (phosphate buffered saline) by hand shaking gently. Cells were transferred to a 50 ml tube and centrifuged at 850 rpm for 3 minutes to remove PBS.
(§2) The pelleted cells were re-suspended in 10 ml assay buffer and 90 μl aliquots (˜50,000 cells) per well delivered to a 96-well assay plate containing 10 μl of test compounds ([…]) or buffer control and incubated at room temperature for 30 minutes.

human TRPV1 [3] = target: T1, human TRPV1; experiment: FLIPR Ca2+ assay, reduction of hydrogen peroxide activation of TRPV1; type: cell-based; set-up: expressed in transfected cells; conditions: for % inhibition of TRPV1 activation by 500 uM H2O2: Dose 1000; for % Reduction of Hydrogen Peroxide TRPV1 Activation: antagonist 100 μM against 500 μM hydrogen peroxide; for Ca++ counts: with compound, Dose 1000, 500 uM H2O2
Method: as §1
The pelleted cells were re-suspended in 10 ml assay buffer and 90 μl aliquots (˜50,000 cells) per well delivered to a 96-well assay plate containing 10 μl of test compounds (1 mM in assay buffer, […]) or buffer control and incubated at room temperature for 30 minutes.

[4] = Trained sensory panel, burn sensation after brushing with menthol dentifrice; type: in vivo, human; set-up: key: 0 = no burning to 60 = highest intensity; 7.5 difference = significant; conditions: scale 0-60
Method: (§3) For EXAMPLES 6 and 7 sensory evaluation studies of menthol and hydrogen peroxide activity were conducted using a methodology patterned after the techniques described in M. C. Meilgaard, et al., Sensory Evaluation Techniques, 4th Ed. (2007). In one study, a panel of 8-15 trained sensory experts evaluated the menthol or peroxide sensations experienced after brushing with a dentifrice containing the menthol or hydrogen peroxide and the respective TRPA1 or TRPV1 antagonists. Panelists brushed teeth with 1.5 grams of a dentifrice (containing coolant) or control (no coolant) and then expectorated. After brush expectoration, panelists evaluated the burn intensity, assigning a number between 0 (no burning) to 60 ([…]). After rinse expectoration, panelists evaluated burning intensity according to the same 0 to 60 scale. Evaluations were conducted at 5, 15, 30, 45, 60 minute, etc. time points. At each evaluation, panelists were instructed to breathe in through pursed lips and evaluate overall burning sensation. In this test, a numerical score difference from the control of 7.5 indicates user significant differences or definite reduction in burning at the specified time point. Measures between 4.0 to 7.5 indicate a noticeable trend in the specified parameter, which is not statistically significant, but noticeable.
For EXAMPLE 6 (TABLES 8 and 9), a panel of 14 trained sensory experts evaluated the sensory profile experienced after brushing with the dentifrice sample formulations shown in TABLES 6 and 7 containing high levels of menthol followed by rinsing with water. Panelists brushed teeth with 1.5 grams of a test dentifrice (containing high menthol levels) or control (no menthol) for 36 seconds and then expectorated. The dentifrice sample formulations (control and high L-Menthol) are shown below in TABLE 6 (with peppermint flavor) and TABLE 7 (with spearmint flavor). The dentifrices were made using conventional methods and are shown below with component amounts in weight % of total composition. […]
For TABLE 10 all the Samples had the same formulation as Sample E from TABLE 6, except for the Control which lacked menthol. After brushing or mouthwash expectoration, panelists evaluated the burning sensation, assigning a number between 0 (no sensation) to 60 (highest intensity sensation). Evaluations were conducted at 5, 10, 20 and 30 minute time points, following expectoration. At each evaluation, panelists were instructed to breathe in through pursed lips and evaluate overall sensation. In this test, a numerical score of 7.5 indicates a significant user noticeable sensation. Differences less than 7.5, but greater than 5.0 indicate the trending of the data on a specific attribute.

[5] = Trained sensory panel, burning and numbing sensation after hydrogen peroxide mouthwash; type: in vivo, human; set-up: key to Burning Sensation: 0 = no sensation, 60 = highest intensity sensation; conditions: scale 0-60
Method: as §3
For EXAMPLE 7, a panel of 10 trained sensory experts evaluated the sensory profile experienced after rinsing with 30 grams of a test mouthwash (containing hydrogen peroxide and TRPA1 or TRPV1 antagonist) or control (containing hydrogen peroxide and no TRPA1 or TRPV1 antagonist) for 30 seconds and then expectorated. After expectoration, panelists evaluated the sensorial profile (cooling, warming, burning, numbing, and astringency), assigning a number between 0 (no sensation) to 60 (highest intensity sensation). Evaluations were conducted at 2.5, 5, 10, 20, and 30 minute time points, following expectoration at each evaluation, panelists were instructed to breathe in through pursed lips and evaluate overall burning or numbing sensation. The hydrogen peroxide containing mouthwash formulations are shown below in TABLE 11. The mouthwash samples tested comprised a control having the components listed in TABLE 11 by weight % of the composition or the control formulation plus TRPA1 or TRPV1 antagonist, as shown in TABLE 12. The mouthwashes were made using conventional methods and are shown below with amounts in weight % of total composition.

human TRPA1 = human TRPA1 (Homo sapiens, UniProt O75762); experiment: FLIPR Ca2+ assay, reduction of hydrogen peroxide activation of TRPA1; type: cell-based; set-up: expressed in transfected cells
Method: After centrifugation, a pellet of cells was formed in the bottom of the tube separating them from the supernatant solution.
as §2

[6] = 5 Min After Rinse, dentifrice Sample E (1% menthol) with antagonist levels as E42
[7] = 10 Min After Rinse, dentifrice Sample E (1% menthol) with antagonist levels as E42
[8] = 20 Min After Rinse, dentifrice Sample E (1% menthol) with antagonist levels as E42
[9] = 30 Min After Rinse, dentifrice Sample E (1% menthol) with antagonist levels as E42
[10] = After Expectoration, dentifrice Sample E (1% added menthol) with Apritone 200 ppm, Dihydrojasmone 6 ppm, Isobornyl Isobutyrate 100 ppm, α-heptyl-γ-valerolactone 100 ppm as named
[11] = After Rinse, dentifrice Sample E (1% menthol) with antagonist levels as E42
[12] = 2 Min 30 SEC After Expectoration, H2O2 mouthwash, antagonist levels as E48
[13] = 5 Min After Expectoration, H2O2 mouthwash, antagonist levels as E48
[14] = 10 Min After Expectoration, H2O2 mouthwash, antagonist levels as E48
[15] = 20 Min After Expectoration, H2O2 mouthwash, antagonist levels as E48
[16] = 30 Min After Expectoration, H2O2 mouthwash, antagonist levels as E48
[17] = After Expectoration, H2O2 mouthwash, antagonist levels as E48
[18] = Initial in Mouth, hydrogen peroxide mouthwash (TABLE 11) with Apritone 200 ppm, Isobornyl Isobutyrate 100 ppm, Dihydrojasmone 6 ppm as named, 10 panelists
[19] = 1 ppm 1-propanethiol, 0.01% test compound
[20] = 1 ppm 1-propanethiol, 0.05% test compound
[21] = 10 ppm 1-propanethiol, 0.01% test compound
[22] = 10 ppm 1-propanethiol, 0.05% test compound

T1 sequence (Q8NER1 whole entry): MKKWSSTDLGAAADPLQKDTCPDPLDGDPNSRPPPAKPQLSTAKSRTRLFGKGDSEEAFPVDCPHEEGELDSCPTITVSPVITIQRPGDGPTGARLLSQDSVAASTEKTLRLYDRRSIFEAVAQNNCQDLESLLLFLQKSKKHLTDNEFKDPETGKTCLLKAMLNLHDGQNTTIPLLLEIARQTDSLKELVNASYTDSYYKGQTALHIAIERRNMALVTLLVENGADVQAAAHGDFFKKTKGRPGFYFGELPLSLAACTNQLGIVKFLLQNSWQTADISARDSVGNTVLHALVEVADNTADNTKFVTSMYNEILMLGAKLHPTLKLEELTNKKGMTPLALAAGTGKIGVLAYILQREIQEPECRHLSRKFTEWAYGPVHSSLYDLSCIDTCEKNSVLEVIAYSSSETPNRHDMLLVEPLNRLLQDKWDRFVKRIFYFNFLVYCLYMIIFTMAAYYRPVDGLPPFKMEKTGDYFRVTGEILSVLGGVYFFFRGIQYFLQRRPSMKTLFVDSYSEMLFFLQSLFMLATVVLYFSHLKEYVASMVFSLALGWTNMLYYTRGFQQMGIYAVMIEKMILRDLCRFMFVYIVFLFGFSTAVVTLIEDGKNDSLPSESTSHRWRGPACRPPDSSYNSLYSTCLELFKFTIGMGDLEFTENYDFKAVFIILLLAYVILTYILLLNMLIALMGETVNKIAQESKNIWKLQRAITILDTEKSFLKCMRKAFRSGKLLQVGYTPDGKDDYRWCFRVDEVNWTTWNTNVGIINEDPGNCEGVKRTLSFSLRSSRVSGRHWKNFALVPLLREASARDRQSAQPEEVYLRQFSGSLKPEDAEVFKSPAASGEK
human TRPA1, sequence (O75762 whole entry): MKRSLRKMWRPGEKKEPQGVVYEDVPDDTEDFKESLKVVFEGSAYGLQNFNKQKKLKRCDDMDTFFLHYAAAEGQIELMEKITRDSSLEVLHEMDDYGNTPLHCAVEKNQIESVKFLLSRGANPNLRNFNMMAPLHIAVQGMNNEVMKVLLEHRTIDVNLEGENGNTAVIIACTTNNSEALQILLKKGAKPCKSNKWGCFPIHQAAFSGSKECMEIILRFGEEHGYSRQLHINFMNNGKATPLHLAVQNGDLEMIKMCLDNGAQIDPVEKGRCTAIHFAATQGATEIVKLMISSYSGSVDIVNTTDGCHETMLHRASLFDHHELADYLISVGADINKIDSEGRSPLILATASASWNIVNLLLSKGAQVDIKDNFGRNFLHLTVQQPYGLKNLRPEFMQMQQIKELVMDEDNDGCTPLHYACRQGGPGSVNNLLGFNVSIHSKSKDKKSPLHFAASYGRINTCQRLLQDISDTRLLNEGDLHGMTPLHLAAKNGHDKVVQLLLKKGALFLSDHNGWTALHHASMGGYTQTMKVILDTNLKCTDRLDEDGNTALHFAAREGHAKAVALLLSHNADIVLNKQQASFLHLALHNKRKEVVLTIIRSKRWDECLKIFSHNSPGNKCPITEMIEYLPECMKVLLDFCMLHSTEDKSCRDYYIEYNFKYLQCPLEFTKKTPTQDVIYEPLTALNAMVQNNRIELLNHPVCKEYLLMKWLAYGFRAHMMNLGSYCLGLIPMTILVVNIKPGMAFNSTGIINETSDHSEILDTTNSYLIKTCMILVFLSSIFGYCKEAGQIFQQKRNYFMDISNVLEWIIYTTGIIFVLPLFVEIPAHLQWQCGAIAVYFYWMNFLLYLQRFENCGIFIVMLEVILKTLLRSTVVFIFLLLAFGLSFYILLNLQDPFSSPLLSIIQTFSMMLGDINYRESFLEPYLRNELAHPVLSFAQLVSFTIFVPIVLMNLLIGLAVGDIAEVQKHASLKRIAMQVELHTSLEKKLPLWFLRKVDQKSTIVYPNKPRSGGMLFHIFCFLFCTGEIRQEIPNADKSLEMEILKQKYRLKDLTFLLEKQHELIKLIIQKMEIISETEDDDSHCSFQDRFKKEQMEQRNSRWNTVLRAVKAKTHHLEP

SMILES	% Thiol Reduction ([1]; 1 ppm 1-propanethiol)	% inhibition of TRPV1 activation by 350 nM Capsaicin (human TRPV1 [2])	Ca++ counts (human TRPV1 [2])	% inhibition of TRPV1 activation by 500 uM H2O2 (human TRPV1 [3])	% Reduction of Hydrogen Peroxide TRPV1 Activation (human TRPV1 [3])	Ca++ counts (human TRPV1 [3])	Burning Sensation Rating [4, 6]	Burning Sensation Rating [4, 7]	Burning Sensation Rating [4, 8]	Burning Sensation Rating [4, 9]	Burning Sensation Rating [4, 10]	Burning Sensation Rating [4, 11]	Burning Sensation [5, 12]	Numbing Sensation [5, 12]	Burning Sensation [5, 13]	Numbing Sensation [5, 13]	Burning Sensation [5, 14]	Numbing Sensation [5, 14]	Burning Sensation [5, 15]	Numbing Sensation [5, 15]	further results
CC(=O)c1ccc[nH]1 [Acetylpyrrole]	37.3%	–	–	–	–	–	–	–	–	–	–	–	–	–	–	–	–	–	–	–	–
CC(C)=CCC/C(C)=C/CC1CCCC1=O (centres unmarked) [Apritone]	–	10%	13526	96%	96%	66	13.3	5.3	0.0	0.0	27.4	24.0	20.8	12.4	16.0	10.1	8.6	6.0	3.3	4.2	Burning Sensation [5, 16]: 1.3; Numbing Sensation [5, 16]: 0.8; Burning Sensation [5, 17]: 21.9; Numbing Sensation [5, 17]: 11.6; Burning Sensation [5, 18]: 12.6
CC1=CC(=O)CC(C)(C)C1 [Isophorone]	43.1%	–	–	–	–	–	–	–	–	–	–	–	–	–	–	–	–	–	–	–	–
C/C=C/C(=O)C1C(C)C=CCC1(C)C (centres unmarked) [delta-Damascone]	–	–	–	–	–	–	–	–	–	–	–	–	–	–	–	–	–	–	–	–	Percent Thiol Reduction vs. Control [1, 19]: 77.7%; Percent Thiol Reduction vs. Control [1, 20]: 82.3%; Percent Thiol Reduction vs. Control [1, 21]: 81.0%; Percent Thiol Reduction vs. Control [1, 22]: 81.2%
O=C/C=C/c1ccccc1 [Cinnamic aldehyde]	–	–	–	–	–	–	–	–	–	–	–	–	–	–	–	–	–	–	–	–	Percent Thiol Reduction vs. Control [1, 19]: 36.8%; Percent Thiol Reduction vs. Control [1, 20]: 52.4%; Percent Thiol Reduction vs. Control [1, 21]: −10.0%; Percent Thiol Reduction vs. Control [1, 22]: −5.7%
CC(C)C(=O)O[C@@H]1C[C@H]2CC[C@]1(C)C2(C)C [Isobornyl Isobutyrate]	–	1.5%	14803	52%	52%	541	12.8	5.6	0.6	0.0	25.4	22.8	17.6	7.9	11.4	5.8	5.1	2.5	0.0	0.0	reduction of hydrogen peroxide activation of TRPV1, in words (human TRPV1 [3]): hydrogen peroxide reduction of TRPV1; % Reduction of Hydrogen Peroxide TRPA1 Activation (human TRPA1): 80%; Block of hydrogen peroxide activation of TRPA1 (human TRPA1): BLOCK ONLY H2O2/TRPA1; reduction of hydrogen peroxide activation of TRPA1, in words (human TRPA1): reduced hydrogen peroxide activation of TRPA1; Burning Sensation [5, 16]: 0.0; Numbing Sensation [5, 16]: 0.0; Burning Sensation [5, 17]: 20.9; Numbing Sensation [5, 17]: 8.4; Burning Sensation [5, 18]: 12.7
